Laboratory results taken from patent publication EP4458977A1, “SELF-ASSEMBLING PEPTIDE AMPHIPHILES AS RETROVIRAL TRANSDUCTION ENHANCERS” (Max-Planck-Gesellschaft zur Förderung der Wissenschaften …, priority 2023, dated 2024).
Entries after “also recorded” stand apart in the source; their conditions may differ. Where a SMILES comes first, the peptide text is derived from it. Where no end group is shown, it is not given here. The star is where a group is joined. Fmoc = O=C(OCC1c2ccccc2-c2ccccc21)*; Palmitoyl = CCCCCCCCCCCCCCCC(=O)*

Experiments:
[1] = Thioflavin T (ThT) fluorescence assay; format: physicochemical; set-up: key to ThT: + = ThT active; - = no ThT fluorescence observed; settings: for ThT: ThT fluorescence, 1 mg/mL, PBS; for N-fold ThT-fluorescence: relative to PBS control
Method: Transmission electron microscopy (TEM) measurements, Thioflavin (ThT), zeta-potential measurements for fibril characterization were prepared and conducted according to prior art procedures. […] Fibrils were defined as distinct, if no visible structures could be identified in fluorescence and brightfield microscopy. A peptide fibril was considered as ThT-active if the fluorescence intensity was at least twice as strong compared to the control (PBS containing 10% DMSO).

HeLa cells [2] = experiment: Confocal laser scanning microscopy and degradation study with PA1-3 and HeLa cells; format: cell-based; settings: for association with cellular membranes: HeLa cells, 30 min
Method: 4 µL of the preformed peptide fibrils (1 mg mL^-1) were diluted with 4 µL Proteostat (Enzo Life Science, 1 µL stock in 999 µL PBS) and incubated for 10 min and further diluted with medium to receive a final peptide concentration of 20 µg mL^-1. The nucleus of the HeLa cells was stained with Hoechst 33342 (NucBlue™, Thermo Fisher Scientific). The peptide solution was transferred to the HeLa cells and incubated for 30 min at 37°C before washing three times with PBS. […] For the evaluation of aggregate degradation, the samples were further incubated at 37°C for 3 d and analyzed without any additional washing step. […] The number of aggregates were determined by accumulating the number of aggregates larger than 10 µm^2 in an area of 581.25 × 581.25 µm, repeated in three technical triplicates.

[3] = Zeta-potential measurement (dynamic light scattering); format: physicochemical; settings: for Zeta Potential / mV: 1 mg/mL, PBS; for Count Rate / kcps: derived count rate of scattered light during zeta-potential measurements
Procedure, shortened: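 Peptide at 1 mg mL-1 stock was diluted tenfold in 1 mM KCl and measured by dynamic light scattering in triplicate. The derived count rate served as a light-scattering and turbidity indicator of microscopic aggregation.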

[4] = ATR-FT-IR determination of β-sheet content; format: physicochemical; settings: for β-sheet content / %: peak integration of parallel β-sheet at 1630 cm-1, 2nd derivative of ATR-IR spectra; for β-sheet amount: 1 mg/mL in PBS lyophilized, integral at 1630 cm^-1 relative to 1650-1700 cm^-1
Procedure, shortened: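 From second-derivative spectra, β-sheet amount is the 1630 cm-1 integral over the 1650-1700 cm-1 (native) region. Spectra were taken on solid, lyophilized fibrils via diamond-crystal ATR, averaging 64 scans at 2 cm^-1 resolution.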

CD4+ T cells = experiment: γ-retroviral transduction assay (GALV-RV, GFP+ cells); format: cell-based, Human
Method: (§1) γ-Retroviral transduction Assay with Jurkat and CD4+ T cells: The effect of peptide fibrils on retroviral transduction of Jurkat cells was analyzed 3 days post transduction by determining the percentage of GFP + cells by flow cytometry. The assay was conducted according prior art procedures.
Human CD4+ T cells were isolated from a Buffy coat using RosetteSep™ Human CD4+ Enrichment Cocktail ([…] Technologies) according to manufacturer's protocol. Isolated T cells were activated using Dynabeads™ Human T-Activator CD3/CD28 (GibcoTM) according to manufacturer's protocol in presence of 10 ng mL^-1 IL-2 (Miltenyi Biotec) for three days. After 3 days the magnetic Dynabeads were removed using a magnet and T cells were cultured in presence of 9 ng mL^-1 IL-7 (Miltenyi Biotec) and 10 ng mL^-1 IL-15 (Miltenyi Biotec). After 1 day 5×10^5 T cells were transduced with GALV-γ-RV in absence and presence of PA1, PA2, EF-C (0.26, 1.3 and 6.5 µM) and Vectofusin®-1 (10 µg mL^-1; Miltenyi Biotec), or RetroNectin (20 µg mL^-1; Takara Bio). […] After 3 days GFP+ T cells were analyzed by flow cytometry. Viability was determined using LIVE/DEAD™ Fixable Aqua Dead Cell Stain Kit (ThermoFisher Scientific) according to manufacturer's protocol.

Jurkat cells = experiment: as above; format: cell-based
Method: as §1

[5] = Fluorescence microscopy of ThT-stained fibrils (µm-sized aggregates); format: physicochemical; settings: for fluorescent, µm-sized aggregates (ThT staining): 1 mg/mL stained with 50 µM ThT
Procedure, shortened: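 Fibrils (1 mg mL^-1) mixed 1:9 with 50 µM ThT, giving 0.1 mg mL^-1 stained fibrils on glass. Imaged under 10x air objective with excitation 480/40 nm and emission 527/30 nm. Fibrils called distinct when no visible structures appeared in fluorescence or brightfield.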

[6] = TEM of peptide assemblies (fibril formation / assembly); format: physicochemical; set-up: key to Fibril Formation: "1" means fibril formation observed; "0" means no fibrils observed; settings: for TEM morphology (in words): 1 mg/mL in PBS; for Assembly without hydrophob residue: corresponding peptide without hydrophobic moiety; for Assembly: peptide amphiphile; for Fibril Formation: via TEM
Procedure, shortened: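 Peptides predissolved in DMSO at 10 mg/mL (stock), diluted in PBS to 650 µM or 1 mg/mL final and incubated 1 d at rt (20–25 °C) to form fibrils. Other concentrations obtained by diluting preformed fibrils; assemblies imaged by TEM.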

HIV-1 = settings: for enhancement of HIV-1 infection / transduction (in words): 6.5 µM, 1.3 µM, 0.26 µM; for Infectivity enhancing N fold at 1.3 µM: relative to virus only;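 for all read-outs here: TZM-bl reporter cells exposed to HIV-1 with peptide fibrils, infection read out as β-galactosidase luminescence, compared with virus alone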
Method: HIV-1 Infection Assay with TZM-bl cells: The effect of peptide fibrils on HIV-1 infection was studied via a luminescence assay for β-galactosidase, which was reported by TZM-bl cells upon infection. The HIV-1 infection assay was conducted in three technical replicates and repeated in three independent experiments unless stated otherwise.

HeLa cells [7] = experiment: Confocal laser scanning microscopy and degradation study with PA library and HeLa cells; format: cell-based; settings: for association with cellular membranes: 2 µg added to 20.000 HeLa cells, 30 min; for degradability (in words) / Degradability / % (rel. to initial particles > 10 µm^2): HeLa cells; for degradability (in words): 3 days; for Degradability / % (rel. to initial particles > 10 µm^2): 3 d relative to 30 min; for aggregate number decreases / degraded in presence of HeLa cells within 3 days: d3 relative to d0
Procedure, shortened: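 HeLa cells (20,000/well) got Proteostat-stained PAs (2 µg peptide per 20.000 cells) with Hoechst nuclear stain, 30 min at 37°C, PBS-washed, then held 3 d at 37°C unwashed. Confocal imaging at d0 and d3 counted aggregates >10 µm^2 in 1008 × 1008 µm, three technical replicates. Degradation taken as d3/d0 aggregate number.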

[8] = Zeta-potential measurement (dynamic light scattering); format: physicochemical

Row | Molecule | ThT [1] | association with cellular membranes (HeLa cells [2]) | zeta-potential (in words) [3] | Zeta Potential / mV [3] | formation of µm-sized aggregates in aqueous medium / PBS (in words) [5] | TEM morphology (in words) [6] | enhancement of HIV-1 infection / transduction (in words) (HIV-1) | Assembly without hydrophob residue [6] | Assembly [6] | N-fold ThT-fluorescence [1] | Count Rate / kcps [3] | β-sheet amount [4] | association with cellular membranes (HeLa cells [7]) | degradability (in words) (HeLa cells [7]) | Degradability / % (rel. to initial particles > 10 µm^2) (HeLa cells [7]) | aggregate number decreases / degraded in presence of HeLa cells within 3 days (HeLa cells [7]) | enhances infectivity at 1.3 µM concentration, times more efficient compared to virus only infection (HIV-1) | Infectivity enhancing N fold at 1.3 µM (HIV-1) | fluorescent, µm-sized aggregates (ThT staining) [5] | Zeta-Potential / mV [8] | other results
1 | CCCCCCCCCCCCCCCC(=O)N[C@@H](Cc1ccccc1)C(=O)N[C@@H](CCC(N)=O)C(=O)N[C@@H](Cc1ccccc1)C(=O)N[C@@H](CCCCN)C(=O)N[C@@H](Cc1ccccc1)C(=O)N[C@@H](CCCCN)C(=O)N[C@@H](CS)C(N)=O [PA2, C16-FQFKFKC-NH2] (Palmitoyl-FQFKFKC-NH2) | + | association with cellular membranes | positive zeta-potential | +19.2 ± 3.4 mV | formation of µm-sized aggregates; also recorded: microscopic clusters of fibrils were formed |  |  |  |  |  |  |  |  |  |  |  |  |  |  |  | degraded over the course of 3 days in the presence of HeLa cells (HeLa cells [2]; 4 µg peptide added to 40,000 cells): 53%; β-sheet content / % [4]: 59%; transduction enhancement (in words) (CD4+ T cells): activity in the range of commercially available gold-standard enhancers RetroNectin and Vectofusin-1; transduction enhancement (in words) (Jurkat cells): strong transduction enhancement similar to EF-C
2 | CCCCCCCCCCCCCCCC(=O)N[C@H](C(=O)N[C@H](C(=O)N[C@H](C(=O)N[C@@H](C)C(=O)N[C@@H](C)C(=O)N[C@@H](C)C(=O)N[C@@H](CCC(=O)O)C(=O)N[C@@H](CCC(=O)O)C(=O)N[C@@H](CCC(=O)O)C(N)=O)C(C)C)C(C)C)C(C)C [PA3] (Palmitoyl-VVVAAAEEE-NH2) | + | did not associate with cells | negative zeta-potential | -29.8 ± 2.7 mV | does not form µm-sized aggregates in PBS; also recorded: did not bundle or adopt µm-sized aggregates in PBS | distinct fibrils | no transduction enhancement |  |  |  |  |  |  |  |  |  |  |  |  |  | β-sheet content / % [4]: 61%
3 | CC(C)[C@H](NC(=O)OCC1c2ccccc2-c2ccccc21)C(=O)N[C@H](C(=O)N[C@H](C(=O)N[C@@H](C)C(=O)N[C@@H](C)C(=O)N[C@@H](C)C(=O)N[C@@H](CCCCN)C(=O)N[C@@H](CCCCN)C(=O)N[C@@H](CCCCN)C(N)=O)C(C)C)C(C)C [Pat12] (Fmoc-VVVAAAKKK-NH2) |  |  | positive zeta-potential |  | form µm-sized aggregates | able to form fibrils; also recorded: fibrillar morphologies | showed infectivity enhancement | No | Yes | 269.9 | 509.5 kcps | 52% | association with cellular membranes | non-degradable PA | 28% | 28% | 5 times | 5±1 N fold | fluorescent, µm-sized aggregates | 15.2 mV | Fibril Formation ([6]; hydrophobic moiety exchange): 1
4 | C16-ester-SVVVAAAKKK-NH2 (S(Palmitoyl)VVVAAAKKK-NH2; N-terminus assumed; SMILES CCCCCCCCCCCCCCCC(=O)OC[C@H](N)C(=O)N[C@H](C(=O)N[C@H](C(=O)N[C@H](C(=O)N[C@@H](C)C(=O)N[C@@H](C)C(=O)N[C@@H](C)C(=O)N[C@@H](CCCCN)C(=O)N[C@@H](CCCCN)C(=O)N[C@@H](CCCCN)C(N)=O)C(C)C)C(C)C)C(C)C) [Pat1] |  |  |  |  |  | fibrillar morphologies |  | No | Yes | 277.1 | 3217.3 kcps | 43% | association with cellular membranes | degraded well, but not as efficient as PA1 or Pat3; also recorded: degradable PA | 31% | 30% | 17 times | 17±5 N fold | fluorescent, µm-sized aggregates | 20.5 mV | Fibril Formation ([6]; linkage chemistry exchange): 1
5 | C16-thioester-CVVVAAAKKK-NH2 (C(Palmitoyl)VVVAAAKKK-NH2; N-terminus assumed; SMILES CCCCCCCCCCCCCCCC(=O)SC[C@H](N)C(=O)N[C@H](C(=O)N[C@H](C(=O)N[C@H](C(=O)N[C@@H](C)C(=O)N[C@@H](C)C(=O)N[C@@H](C)C(=O)N[C@@H](CCCCN)C(=O)N[C@@H](CCCCN)C(=O)N[C@@H](CCCCN)C(N)=O)C(C)C)C(C)C)C(C)C) [Pat3] |  |  |  |  |  | fibrillar morphologies | potent enhancers of HIV-1 infection | No | Yes | 166.1 | 2058.5 kcps | 50% | association with cellular membranes | degradable PA | 87% | 87% | 11 times | 11±4 N fold | fluorescent, µm-sized aggregates | 18.3 mV | Fibril Formation ([6]; linkage chemistry exchange): 1
